For one data set, the system named is hPSC. Briefly: Directed cardiac differentiation of hPSC in minimal media (Example 1). It is filed as cell-based, human. As to conditions: for inducing cardiac differentiation (GSK-3β inhibitors, Wnt signaling agonists): BIO 2-5 μM, CHIR-99021 4-10 μM; for Wnt signaling antagonist effective for cardiac differentiation: at a concentration of 5 μM. The method, then:
Directed Cardiac Differentiation Procedure. (volumes provided are for a T25 flask; adjust volumes proportionately for larger vessels) Day 0 (day 4 after passage): Aspirate medium, and replace with 5 mL of minimal media (CDM3, D3, D4, or D11) supplemented with 6 uM of CHIR-99021 (CHIR-99021 can be used at 4-15 μM). Place flasks in a regular ambient O2, 5% CO2 incubator. Day 2: 48 h. Aspirate media and replace with 5 mL of minimal media (CDM3, D3, D4, or D11). Day 3: 72 h. Aspirate media and replace with 5 mL of minimal media (CDM3, D3, D4, or D11) supplemented with 0.5 uM C59 (C59 may be used at 0.5-5 μM). Day 5: Aspirate media and replace with 5 mL of minimal media (CDM3, D3, D4, or D11). From day 5 onwards media should be changed every 2 days with minimal media (CDM3, D3, D4, or D11).
From day 0 to day 2 (d0-d2), minimal media (CDM3, D3, D4, or D11) was supplemented with the Wnt signaling agonist CHIR-99021 (6-10 uM 48 h, d0-d2), which triggers canonical Wnt/β-Catenin signaling that leads to the subsequent up-regulation of BMP4 and activin A. Media is then exchanged to non-supplemented minimal media (CDM3, D3, D4, or D11) for 1 day followed by contact with a Wnt signaling antagonist (e.g., C59: 0.5-5 uM, 48 h, d3-d5) for 2 days. At day 5, 7, and 9 minimal media (CDM3, D3, D4, or D11) is exchanged for fresh media, and contraction begins between d7 and d10. At day 11, media is exchanged to a variant of minimal media (CDM3, D3, D4, or D11) without […] that results in the depletion of non-cardiomyocytes due to a lack of glycogen stores. Media was exchanged on day 13 for fresh media lacking glucose. At day 15, media was exchanged for fresh minimal media (CDM3, D3, D4, or D11) (containing glucose).
The presence of cardiomyocytes was verified in a number of different ways, for example: flow cytometry of cells contacted with an antibody specific for a cardiomyocyte marker (TNNT2); imaging of cells stained with antibodies specific for α-Sarcomeric actin (red) and Troponin T (TNNT2); electrophysiological profiling; and evaluating responsiveness to known cardioactive drugs (e.g., Norepinephrine). Assays performed on multiple different cell lines (including several hESC lines and over 30 hiPSC lines) confirmed that the subject methods are highly consistent and highly efficient, as very little variability was observed among the different cell lines.

Another data set relates to hiPSCs. Briefly: Cardiac differentiation of hiPSCs in CDM3, optimisation of media and small molecules (TNNT2 flow cytometry). Format: cell-based. The conditions noted are these: for cell death / toxicity of GSK3B inhibitors: in CDM3, FIG. 10g; for inducing cardiac differentiation (GSK3B inhibitors): in CDM3, FIG. 10g-h; for timing of Wnt signaling modulation for cardiac differentiation efficiency: CHIR99021 for 2 days followed by Wnt-C59 for 2 days, in CDM3. The method, then:
Cardiac differentiation of hiPSCs. hiPSCs and hESCs (>p20) were split at 1:10 or 1:12 ratios using EDTA as above and grown for 4 days at which time they reached ˜85% confluence. Media was changed to CDM3, consisting of RPMI 1640 (11875, Life Technologies), 495 μg/mL Oryza sativa-derived recombinant human albumin (A0237, Sigma-Aldrich, 75 mg/mL stock solution in dH2O, stored at −20° C.), 213 μg/mL L-ascorbic acid 2-phosphate (Sigma-Aldrich, 64 mg/mL stock solution in dH2O, stored at −20° C.). Media was changed every other day (48 h). For d0-d2, media was supplemented with 6 μM CHIR99021 (LC Laboratories, Woburn, Mass., USA). On d2, media was change to CDM3 supplemented with […] Wnt-C59 (Cellagentech, San Diego, Calif., USA). Media was changed on d4 and every other day for CDM3.
Wnt inhibitors assessed were IWP-2, IWR-1 (Sigma-Aldrich), XAV-939, ICG-001 (Selleck Chemicals), IWP-4 (Stemgent, Cambridge, Mass., USA), and Wnt-C59 (Cellagentech). GSK3B inhibitors assessed were CHIR99021 (LC Laboratories), BIO, TWS119 (Selleck Chemicals), 1-azenkenpaullone, TDZD-8, ARA014418, and 3F8 (all Sigma-Aldrich). Inhibitors used for pathway analysis were PD173074, SB203580, LDN193189, SB431542 (all Selleck Chemicals), SU5402, Dorsomorphin, A83-01 (Tocris, Bristol, UK), ALK5 inhibitor (Stemgent), and ITD-1 (Xcessbio, San Diego, Calif., USA). All small molecules were re-suspended to 10 mM in dimethyl sulfoxide (DMSO).
Flow cytometry. For optimization of cardiac differentiation conditions, cells were cultured in 12-well plates. For analysis of cardiomyocyte differentiation efficacy and subtype specification, expression of TNNT2, MLC2A and MLC2V was analyzed by flow cytometry. At d14-15 of differentiation, the entire well was dissociated with TrypLE Express for 10 min at 37° C. and transferred to flow cytometry tubes (BD Biosciences). Cells were then fixed with 1% PFA for 15 min, permeabilized with 90% methanol for 15 min and stained using 1:200 mouse monoclonal IgG1 TNNT2 (13-11, Thermo Scientific), 1:400 mouse monoclonal IgG2b MLC2A (MYL7, Synaptic Systems) and 1:200 rabbit polyclonal IgG MLC2V (MYL2, ProteinTech) for 45 min at RT. Secondary staining was performed with 1:1000 Alexa Fluor 488 goat anti-mouse IgG1, 1:1000 Alexa Fluor 488 goat anti-rabbit IgG (H+L), 1:1000 Alexa Fluor 647 goat anti-mouse IgG2b and 1:1000 Alexa Fluor 647 goat anti-rabbit IgG (H+L) secondary antibodies for 20 min. […] Cells were analyzed using a FACSAria II (BD Biosciences) with a […] and FACSDiva software. Data were analyzed using FlowJo 8.7 (Tree Star).

Another data set has as its system hiPSC. Briefly: Analysis of components of defined media for hiPSC cardiac differentiation (contraction score). Format: cell-based, human. Further details: 9 components subtracting: cardiac differentiation score / 2 components subtracting: cardiac differentiation score: scale not given here. The text has this: Development of a Chemically Defined Cardiac Differentiation Platform. We first generated eleven pluripotent hiPSC lines under chemically defined conditions (FIG. 7) on a chemically synthesized vitronectin peptide substrate, with nonenzymatic passaging (FIG. 8). […] To formulate a chemically defined differentiation protocol, we concentrated on the observation that three unrelated media formations are capable of supporting growth factor-based monolayer cardiac differentiation: RPMI+B27-ins, supplemented StemPro-34, and LI-APEL (Table 5). […] Beginning with the 21 components of B27, we subtracted one component at a time and assessed for continued high efficiency differentiation (Table 6a-c) and also assessed components from two other two media (supplemented StemPro-34 and LI-APEL) that yielded benefits (Table 6d-f). We concluded that hiPSC cardiac differentiation was successful in a media consisting of […]: RPMI 1640 basal medium, L-ascorbic acid 2-phosphate (AA 2-P), and BSA (Table 6g).
Other additions to cardiac differentiation media tested were 10.7 μg/mL recombinant human transferrin, […], 1 μg/mL linoleic acid, 1 μg/mL linolenic acid, 2 ng/mL triiodo-l-thyronine, 2 μg/mL L-carnitine, 1 μg/mL D,L-alpha-tocopherol acetate, 100 ng/mL retinol acetate, 1 μg/mL ethanolamine, 20 ng/mL corticosterone, 9 ng/mL progesterone, 47 ng/mL lipoic acid, 100 ng/mL retinol, 1 μg/mL D,L-alpha-tocopherol, 100 ng/mL biotin, 2.5 ug/mL catalase, 2.5 μg/mL glutathione, 2.5 μg/mL superoxide dismutase, 2 μg/mL L-carnitine, 15 μg/mL D(+)-galactose, 16.1 μg/mL putrescine, 450 μM 1-thioglycerol, 55 μM 2-mercaptoethanol, 64 μg/mL L-ascorbic acid 2-phosphate (all from Sigma-Aldrich).

Regarding `O=C1Nc2cc(Br)ccc2/C1=C1/Nc2ccccc2/C1=N\O` [BIO, 6-bromo-3-[(3E)-1,3-dihydro-3-(hydroxyimino)-2H-indol-2-ylidene]-1,3-dihydro-(3Z)-2H-indol-2-one], the “inducing cardiac differentiation (GSK-3β inhibitors, Wnt signaling agonists)” value with hPSC is “successful at inducing cardiac differentiation”. In the data set with hiPSCs, the “cell death / toxicity of GSK3B inhibitors” value is reported as “did not cause total cell death” and the “inducing cardiac differentiation (GSK3B inhibitors)” value is recorded as “successful at inducing any suitable cardiac differentiation”.
For `OCC(O)CS` (centres unmarked) [1-thioglycerol], the “9 components with the addition of: cardiac differentiation score” value in the data set on hiPSC (d) addition of components from the other media formulae of Table 5) was determined as 0. In addition, the “effect of addition on differentiation” value in the data set with hPSC (addition d0-d2, PVA 0.4%) is reported as “severely limited rather than enhanced differentiation”.
As for `O=C1O[C@H]([C@@H](O)CO)C(O)=C1OP(=O)(O)O` [AA 2-P, L-ascorbic acid 2-phosphate], the “9 components with the addition of: cardiac differentiation score” value in the data set on hiPSC (d) component at 10 x concentration) is on record as “+++ (>75% contraction)”. Besides, in the data set on hiPSC (e) third medium with increased concentrations, each component subtracted), the “9 components (with 4 at 10x) subtracting: cardiac differentiation score” value was 0. Also, the “6 components subtracting: cardiac differentiation score” value in the data set on hiPSC (f) fourth 6-component medium, each component subtracted) is recorded as 0. Moreover, the “2 components subtracting: cardiac differentiation score” value in the data set with hiPSC (g) final 3-component medium (RPMI 1640, BSA, 10 x L-ascorbic acid 2-phosphate), component subtracted) came out at 0. Further, the “effect of omitting the component from the differentiation medium” value with hiPSCs (medium without AA 2-P (FIG. 10a)) was “total cell death”.
Consider `COc1ccccc1-n1c(SCC(=O)Nc2nc3ccc(C)cc3s2)nc2c(c1=O)SCC2` [IWP-4, 2-(3,4,6,7-tetrahydro-3-(2-methoxyphenyl)-4-oxothieno[3,2-d]pyrimidin-2-ylthio)-N-(6-methylbenzo[d]thiazol-2-yl)acetamide], for which, in the data set with hPSC, the “Wnt signaling antagonist effective for cardiac differentiation” value is reported as “effective”.
On to `c1ccc2c(-c3cnn4cc(-c5ccc(N6CCNCC6)cc5)cnc34)ccnc2c1` [LDN193189], for which, in the data set on hPSC (small molecule inhibitors at the later stage of differentiation), the “further enhancement of differentiation by pathway inhibitors” value is “did not further enhance the differentiation”.
For `Cc1ccc2nc(NC(=O)CSc3nc4c(c(=O)n3-c3ccccc3)SCC4)sc2c1` [IWP-2, N-(6-Methyl-2-benzothiazoyl)-2-[(3,4,6,7-tetrahydro-4-oxo-3-phenylthieno[3,2-d]pyrimidin-2-yl)thio]-acetamide], in the data set with hPSC, the “Wnt signaling antagonist effective for cardiac differentiation” value was “effective”.
In the case of `Cc1cnc(-c2cnc(NCCNc3ccc(C#N)cn3)nc2-c2ccc(Cl)cc2Cl)[nH]1` [CHIR-99021, 6-[[2-[[4-(2,4-dichlorophenyl)-5-(5-methyl-1H-imidazol-2-yl)-2-pyrimidinyl]amino]ethyl]amino]-3-pyridinecarbonitrile], the “inducing cardiac differentiation (GSK-3β inhibitors, Wnt signaling agonists)” value with hPSC is reported as “successful at inducing cardiac differentiation”. Further, in the data set on hiPSCs, the “timing of Wnt signaling modulation for cardiac differentiation efficiency” value is “optimal”, the “cell death / toxicity of GSK3B inhibitors” value was “did not cause total cell death” and the “inducing cardiac differentiation (GSK3B inhibitors)” value is on record as “successful at inducing any suitable cardiac differentiation”.
For the molecule `O=c1[nH]c(-c2ccc(C(F)(F)F)cc2)nc2c1CSCC2` [XAV939, 3,5,7,8-Tetrahydro-2-[4-(trifluoromethyl)phenyl]-4H-thiopyrano[4,3-d]pyrimidin-4-one], the “Wnt signaling antagonist effective for cardiac differentiation” value in the data set on hPSC is given as “effective”.
With `Cc1cc(-c2ccc(CC(=O)Nc3ccc(-c4cccnc4)cc3)cc2)ccn1` [C59], the “Wnt signaling antagonist effective for cardiac differentiation” value with hPSC was “effective”. Besides, in the data set on hiPSCs, the “timing of Wnt signaling modulation for cardiac differentiation efficiency” value is recorded as “optimal”.

These data come from US9234176B2, “Chemically defined production of cardiomyocytes from pluripotent stem cells” (The Board of Trustees of the Leland Stanford Junior …, priority 2012, dated 2016).
